From PubChem BioAssay (NCI) come the findings set out here.

Test systems include HCT-116 colon; HT29 colon; LOX IMVI melanoma; M14 melanoma; OVCAR-5 ovarian; OVCAR-8 ovarian; SF-295 CNS; SNB-19 CNS; SR leukemia; TK-10 renal.
What all share (test): DTP human tumour cell line panel, 48 h

Where “and” joins values, the source holds several entries; their conditions need not be identical. Identical values can stand only once.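 These data come from cells grown in 96-well plates and exposed to compound for 48 hours at five concentrations. The concentration for 50% growth inhibition is given as GI50. At the TGI there is no net growth.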

For `Cn1c([N+](=O)[O-])cnc1/C=C1\Oc2cc(Cl)ccc2C1=O`, the GI50 in the assay on HCT-116 colon is 0.201 µM; in the assay on HT29 colon, 0.203 µM; in the assay on LOX IMVI melanoma, 0.2 µM; in the assay with M14 melanoma, 0.499 µM; in the assay on OVCAR-5 ovarian, 2.47 µM; in the assay on OVCAR-8 ovarian, 0.401 µM. Also, the GI50 is 2.72 µM with SF-295 CNS, 1.64 µM in the assay with SNB-19 CNS, 0.0393 µM in the assay on SR leukemia and 1.33 µM in the assay on TK-10 renal. Besides, the total growth inhibition concentration (TGI) with HCT-116 colon is 0.806 µM; in the assay on HT29 colon it was 0.657 µM; in the assay with LOX IMVI melanoma it was 0.553 µM; in the assay on M14 melanoma, 4.61 µM; in the assay with OVCAR-5 ovarian it was 7.84 µM; with OVCAR-8 ovarian, over 100 µM. The TGI in the assay on SF-295 CNS is over 42.7 µM; in the assay with SNB-19 CNS, 6.21 µM; with SR leukemia, 0.344 µM; in the assay on TK-10 renal, 4.81 µM.
Take `CCN(CC)CCNC(=O)c1cn2ncnc(Oc3ccc(NC(=O)Nc4ccc(Cl)c(C(F)(F)F)c4)c(F)c3)c2c1C`: the GI50 in the assay with HCT-116 colon is 1.48 µM; with HT29 colon, 0.834 µM; in the assay with LOX IMVI melanoma, 1.3 µM; in the assay on M14 melanoma it was 1.58 µM; in the assay on OVCAR-5 ovarian, 1.86 µM; in the assay with OVCAR-8 ovarian, 1.95 µM. The GI50 with SF-295 CNS was 1.66 µM; with SNB-19 CNS it was 1.95 µM; with SR leukemia, 0.343 µM; in the assay with TK-10 renal, 2.38 µM. Besides, the TGI worked out at 3.18 µM with HCT-116 colon; 2.45 µM with HT29 colon; 2.62 µM in the assay on LOX IMVI melanoma; 3.24 µM in the assay with M14 melanoma; 3.33 µM in the assay with OVCAR-5 ovarian; 3.96 µM with OVCAR-8 ovarian. The TGI in the assay on SF-295 CNS was 3.07 µM; with SNB-19 CNS it was 3.5 µM; with SR leukemia it was 1.09 µM; in the assay on TK-10 renal, 4.04 µM.
As to `O=C/C(=C(/Cl)c1ccc(O)cc1)c1ccccc1`, the concentration for total growth inhibition (TGI) with HCT-116 colon was 37.2 µM; in the assay with HT29 colon it was over 62.7 µM; in the assay with LOX IMVI melanoma it was 46.9 µM; with M14 melanoma, over 57.1 µM; with OVCAR-5 ovarian it was over 100 µM; with OVCAR-8 ovarian, over 92.4 µM. For the same compound, the TGI in the assay on SF-295 CNS is over 72.2 µM; in the assay on SNB-19 CNS, over 100 µM; in the assay on SR leukemia it was over 100 µM; in the assay on TK-10 renal it was over 56 µM.
Regarding `CC(=O)N(C(C)=O)C1=C2c3ccccc3N(S(=O)(=O)c3ccccc3)C2n2c(=O)n(-c3ccccc3)c(=O)n2C1` (centres undefined), the TGI in the assay with HCT-116 colon is over 100 µM; with HT29 colon, over 100 µM; in the assay with LOX IMVI melanoma, 81.3 µM; in the assay with M14 melanoma it was 69.4 µM; in the assay on OVCAR-5 ovarian, over 100 µM; in the assay with OVCAR-8 ovarian, over 100 µM. The TGI in the assay on SF-295 CNS was over 100 µM; with SNB-19 CNS, over 100 µM; with SR leukemia, 39.5 µM; in the assay with TK-10 renal it was over 100 µM.
Take `O=C(c1ccc2ccccc2c1)c1c(C(F)(F)F)n([O-])c2ccc(Cl)cc2[n+]1=O`: the GI50 in the assay with HCT-116 colon is 1 µM; in the assay on HT29 colon, 1.52 µM; in the assay on LOX IMVI melanoma, 0.195 µM; with M14 melanoma, 1.64 µM; with OVCAR-5 ovarian it was 1.87 µM; in the assay with OVCAR-8 ovarian it was 1.55 µM. Moreover, the GI50 in the assay with SF-295 CNS is 1.66 µM; with SNB-19 CNS it was 1.69 µM; in the assay with SR leukemia it was 0.438 µM; in the assay on TK-10 renal it was 1.81 µM. Besides, the TGI stood at 2.33 µM with HCT-116 colon; 2.93 µM in the assay on HT29 colon; 0.375 µM in the assay on LOX IMVI melanoma; 3.05 µM in the assay with M14 melanoma; 3.58 µM in the assay with OVCAR-5 ovarian; 2.91 µM in the assay on OVCAR-8 ovarian. Moreover, the TGI was 3.08 µM in the assay with SF-295 CNS, 3.07 µM in the assay on SNB-19 CNS, 1.34 µM in the assay on SR leukemia and 3.35 µM in the assay with TK-10 renal.
For the compound `Cc1nc(Nc2n[nH]c3c2CN(C(=O)N[C@H](CN(C)C)c2ccccc2)C3(C)C)c2sccc2n1`, the concentration for 50% growth inhibition (GI50) in the assay on HCT-116 colon is 0.00577 µM and < 0.01 µM; in the assay on HT29 colon, 0.0238 µM and 0.0313 µM; with LOX IMVI melanoma it was 0.0087 µM and < 0.0119 µM; in the assay with M14 melanoma, 0.0586 µM and 0.103 µM; in the assay with OVCAR-5 ovarian, 0.0686 µM and 0.322 µM; in the assay with OVCAR-8 ovarian, 0.0839 µM and 0.306 µM. Also, the GI50 in the assay with SF-295 CNS was 0.078 µM and 0.066 µM; in the assay on SNB-19 CNS, 0.0575 µM and 0.0546 µM; in the assay with SR leukemia, 0.00432 µM and < 0.01 µM; with TK-10 renal, 0.0982 µM and 0.491 µM. Also, the total growth inhibition concentration (TGI) is > 5.74 µM and 10.3 µM in the assay with HCT-116 colon; 2.75 µM and 5.59 µM in the assay with HT29 colon; 1.38 µM and 2.16 µM in the assay with LOX IMVI melanoma; > 3.22 µM and 8.37 µM in the assay on M14 melanoma; > 8.88 µM and 25.2 µM in the assay on OVCAR-5 ovarian; > 10 µM and 15.6 µM in the assay on OVCAR-8 ovarian. Further, the concentration for total growth inhibition (TGI) in the assay on SF-295 CNS is > 10 µM and 8.62 µM; with SNB-19 CNS, > 6.54 µM and 3.75 µM; with TK-10 renal it was 3.92 µM and 6.08 µM.
Take `CC(=O)[CH-]C(C)=O.[CH2-]C.[CH2-]C.[Tl+3]`: the GI50 with HCT-116 colon, in the assay with HT29 colon, in the assay on LOX IMVI melanoma, in the assay with M14 melanoma, in the assay on OVCAR-5 ovarian and with OVCAR-8 ovarian was over 100 µM in each case. In addition, the GI50 in the assay on SF-295 CNS, in the assay with SNB-19 CNS, in the assay on SR leukemia and with TK-10 renal was over 100 µM throughout. For the same compound, the TGI with HCT-116 colon, in the assay with HT29 colon, in the assay on LOX IMVI melanoma, in the assay with M14 melanoma, with OVCAR-5 ovarian and with OVCAR-8 ovarian was over 100 µM each time. For the same compound, the TGI in the assay on SF-295 CNS, in the assay on SNB-19 CNS, in the assay on SR leukemia and in the assay on TK-10 renal was over 100 µM throughout.

Usually GI50 stands for the concentration that inhibits growth by half. For orientation: TGI means the concentration at which net growth stops. A lower TGI goes with more potent growth arrest.
